These results are taken from ChEMBL document CHEMBL2396590, “Inhibition of HIV-1 integrase dimerization and activity with crosslinked interfacial peptides” (Bioorg Med Chem, 2013).

The target in assay [1] is Human immunodeficiency virus type 1 integrase (Human immunodeficiency virus 1, UniProt Q7ZJM1, C280S/F185K). Description: Inhibition of HIV1 3'-processing activity of integrase F185K/C280S double mutant expressed in Escherichia coli BL21 (DE3).
The subject of assay [2] is Human immunodeficiency virus type 1 integrase (Human immunodeficiency virus 1), Q7ZJM1 [F185K,C280S]. Briefly: Inhibition of HIV1 integrase F185K/C280S double mutant dimerization expressed in Escherichia coli BL21 (DE3) at 110 uM after 1 hr by PAGE analysis.

Activity calls are given as the source filed them. The calls are words filed in the database; no cut-off is given here. Starred links: 1 amine or outer side, 2 acyl side, 3 side chain; linkers in the order of their positions; H or OH if unused. Non-standard residues stand in square brackets, D forms with d. Residues, ends and D or L forms follow the SMILES beside them. NH(CH2)9CO = O=C(CCCCCCCCCN[*:1])[*:2]; NH(CH2)8CO = O=C(CCCCCCCCN[*:1])[*:2]; X1 = O=C(CN1CCN([*:1])CC1)[*:2]; 12Ado = NCCCCCCCCCCCC(=O)O; Aun = NCCCCCCCCCCC(=O)O; AEEA = NCCOCCOCC(=O)O; Aoc = NCCCCCCCC(=O)O; Ava = NCCCCC(=O)O

H-HLKTAVQMAVFIHNFKR-OH returned a half-inhibitory concentration (IC50) in assay [1] of 2000 nM.

Turning to `CC[C@H](C)[C@H](NC(=O)[C@H](CC(=O)O)NC(=O)[C@@H](NC(=O)[C@H](C)NC(=O)[C@@H](NC(=O)[C@@H](NC(=O)[C@H](CC(=O)O)NC(=O)[C@@H](NC(=O)[C@@H](NC(=O)[C@H](CCCNC(=N)N)NC(=O)[C@H](CCC(=O)O)NC(=O)CNC(=O)[C@H](C)NC(=O)CN1CCN(C(=O)[C@H](CCCNC(=N)N)NC(=O)[C@H](CCCCN)NC(=O)[C@H](Cc2ccccc2)NC(=O)[C@H](CC(N)=O)NC(=O)[C@H](Cc2cnc[nH]2)NC(=O)[C@@H](NC(=O)[C@H](Cc2ccccc2)NC(=O)[C@@H](NC(=O)[C@H](C)NC(=O)[C@H](CCSC)NC(=O)[C@H](CCC(N)=O)NC(=O)[C@@H](NC(=O)[C@H](C)NC(=O)[C@@H](NC(=O)[C@H](CCCCN)NC(=O)[C@H](CC(C)C)NC(=O)[C@@H](N)Cc2cnc[nH]2)[C@@H](C)O)C(C)C)C(C)C)[C@@H](C)CC)CC1)[C@@H](C)CC)C(C)C)[C@@H](C)CC)[C@@H](C)CC)[C@@H](C)O)C(=O)N[C@@H](CCC(N)=O)C(N)=O` (H-HLKTAVQMAVFIHNFKR[X1]AGERIVDIIATDIQ-NH2), in assay [1], the IC50 amounted to 460 nM. The inhibition result in assay [2] was “Active”.

For the compound `CC[C@H](C)[C@H](NC(=O)[C@H](CC(=O)O)NC(=O)[C@@H](NC(=O)[C@H](C)NC(=O)[C@@H](NC(=O)[C@@H](NC(=O)[C@H](CC(=O)O)NC(=O)[C@@H](NC(=O)[C@@H](NC(=O)[C@H](CCCNC(=N)N)NC(=O)[C@H](CCC(=O)O)NC(=O)CNC(=O)[C@H](C)NC(=O)CCCCCCCCCNC(=O)[C@H](CCCNC(=N)N)NC(=O)[C@H](CCCCN)NC(=O)[C@H](Cc1ccccc1)NC(=O)[C@H](CC(N)=O)NC(=O)[C@H](Cc1cnc[nH]1)NC(=O)[C@@H](NC(=O)[C@H](Cc1ccccc1)NC(=O)[C@@H](NC(=O)[C@H](C)NC(=O)[C@H](CCSC)NC(=O)[C@H](CCC(N)=O)NC(=O)[C@@H](NC(=O)[C@H](C)NC(=O)[C@@H](NC(=O)[C@H](CCCCN)NC(=O)[C@H](CC(C)C)NC(=O)[C@@H](N)Cc1cnc[nH]1)[C@@H](C)O)C(C)C)C(C)C)[C@@H](C)CC)[C@@H](C)CC)C(C)C)[C@@H](C)CC)[C@@H](C)CC)[C@@H](C)O)C(=O)N[C@@H](CCC(N)=O)C(N)=O` (H-HLKTAVQMAVFIHNFKR[NH(CH2)9CO]AGERIVDIIATDIQ-NH2), it took 760 nM to reach half-maximal inhibition in assay [1] (IC50). In assay [2], the inhibition entry was “Active”.

Turning to `CC[C@H](C)[C@H](NC(=O)[C@H](CC(=O)O)NC(=O)[C@@H](NC(=O)[C@H](C)NC(=O)[C@@H](NC(=O)[C@@H](NC(=O)[C@H](CC(=O)O)NC(=O)[C@@H](NC(=O)[C@@H](NC(=O)[C@H](CCCNC(=N)N)NC(=O)[C@H](CCC(=O)O)NC(=O)CNC(=O)[C@H](C)NC(=O)CCCCNC(=O)[C@H](CCCNC(=N)N)NC(=O)[C@H](CCCCN)NC(=O)[C@H](Cc1ccccc1)NC(=O)[C@H](CC(N)=O)NC(=O)[C@H](Cc1cnc[nH]1)NC(=O)[C@@H](NC(=O)[C@H](Cc1ccccc1)NC(=O)[C@@H](NC(=O)[C@H](C)NC(=O)[C@H](CCSC)NC(=O)[C@H](CCC(N)=O)NC(=O)[C@@H](NC(=O)[C@H](C)NC(=O)[C@@H](NC(=O)[C@H](CCCCN)NC(=O)[C@H](CC(C)C)NC(=O)[C@@H](N)Cc1cnc[nH]1)[C@@H](C)O)C(C)C)C(C)C)[C@@H](C)CC)[C@@H](C)CC)C(C)C)[C@@H](C)CC)[C@@H](C)CC)[C@@H](C)O)C(=O)N[C@@H](CCC(N)=O)C(N)=O` (H-HLKTAVQMAVFIHNFKR[Ava]AGERIVDIIATDIQ-NH2), it took 3750 nM to reach half-maximal inhibition in assay [1] (IC50).

In the case of H-AGERIVDIIATDIQ-NH2, the IC50 in assay [1] is 3000 nM.

Compound `CC[C@H](C)[C@H](NC(=O)[C@H](CC(=O)O)NC(=O)[C@@H](NC(=O)[C@H](C)NC(=O)[C@@H](NC(=O)[C@@H](NC(=O)[C@H](CC(=O)O)NC(=O)[C@@H](NC(=O)[C@@H](NC(=O)[C@H](CCCNC(=N)N)NC(=O)[C@H](CCC(=O)O)NC(=O)CNC(=O)[C@H](C)NC(=O)CCCCCCCCNC(=O)[C@H](CCCNC(=N)N)NC(=O)[C@H](CCCCN)NC(=O)[C@H](Cc1ccccc1)NC(=O)[C@H](CC(N)=O)NC(=O)[C@H](Cc1cnc[nH]1)NC(=O)[C@@H](NC(=O)[C@H](Cc1ccccc1)NC(=O)[C@@H](NC(=O)[C@H](C)NC(=O)[C@H](CCSC)NC(=O)[C@H](CCC(N)=O)NC(=O)[C@@H](NC(=O)[C@H](C)NC(=O)[C@@H](NC(=O)[C@H](CCCCN)NC(=O)[C@H](CC(C)C)NC(=O)[C@@H](N)Cc1cnc[nH]1)[C@@H](C)O)C(C)C)C(C)C)[C@@H](C)CC)[C@@H](C)CC)C(C)C)[C@@H](C)CC)[C@@H](C)CC)[C@@H](C)O)C(=O)N[C@@H](CCC(N)=O)C(N)=O` (H-HLKTAVQMAVFIHNFKR[NH(CH2)8CO]AGERIVDIIATDIQ-NH2) gave a 50% inhibitory concentration (IC50) in assay [1] of 720 nM. Further, the inhibition result in assay [2] was “Active”.

As to `CC[C@H](C)[C@H](NC(=O)[C@H](CC(=O)O)NC(=O)[C@@H](NC(=O)[C@H](C)NC(=O)[C@@H](NC(=O)[C@@H](NC(=O)[C@H](CC(=O)O)NC(=O)[C@@H](NC(=O)[C@@H](NC(=O)[C@H](CCCNC(=N)N)NC(=O)[C@H](CCC(=O)O)NC(=O)CNC(=O)[C@H](C)NC(=O)CCCCCCCCCCCNC(=O)[C@H](CCCNC(=N)N)NC(=O)[C@H](CCCCN)NC(=O)[C@H](Cc1ccccc1)NC(=O)[C@H](CC(N)=O)NC(=O)[C@H](Cc1cnc[nH]1)NC(=O)[C@@H](NC(=O)[C@H](Cc1ccccc1)NC(=O)[C@@H](NC(=O)[C@H](C)NC(=O)[C@H](CCSC)NC(=O)[C@H](CCC(N)=O)NC(=O)[C@@H](NC(=O)[C@H](C)NC(=O)[C@@H](NC(=O)[C@H](CCCCN)NC(=O)[C@H](CC(C)C)NC(=O)[C@@H](N)Cc1cnc[nH]1)[C@@H](C)O)C(C)C)C(C)C)[C@@H](C)CC)[C@@H](C)CC)C(C)C)[C@@H](C)CC)[C@@H](C)CC)[C@@H](C)O)C(=O)N[C@@H](CCC(N)=O)C(N)=O` (H-HLKTAVQMAVFIHNFKR[12Ado]AGERIVDIIATDIQ-NH2), the concentration for half-maximal inhibition (IC50) in assay [1] turned out to be 1300 nM. In assay [2], the inhibition result was “Active”.

As to `CC[C@H](C)[C@H](NC(=O)[C@H](CC(=O)O)NC(=O)[C@@H](NC(=O)[C@H](C)NC(=O)[C@@H](NC(=O)[C@@H](NC(=O)[C@H](CC(=O)O)NC(=O)[C@@H](NC(=O)[C@@H](NC(=O)[C@H](CCCNC(=N)N)NC(=O)[C@H](CCC(=O)O)NC(=O)CNC(=O)[C@H](C)NC(=O)CCCCCCCNC(=O)[C@H](CCCNC(=N)N)NC(=O)[C@H](CCCCN)NC(=O)[C@H](Cc1ccccc1)NC(=O)[C@H](CC(N)=O)NC(=O)[C@H](Cc1cnc[nH]1)NC(=O)[C@@H](NC(=O)[C@H](Cc1ccccc1)NC(=O)[C@@H](NC(=O)[C@H](C)NC(=O)[C@H](CCSC)NC(=O)[C@H](CCC(N)=O)NC(=O)[C@@H](NC(=O)[C@H](C)NC(=O)[C@@H](NC(=O)[C@H](CCCCN)NC(=O)[C@H](CC(C)C)NC(=O)[C@@H](N)Cc1cnc[nH]1)[C@@H](C)O)C(C)C)C(C)C)[C@@H](C)CC)[C@@H](C)CC)C(C)C)[C@@H](C)CC)[C@@H](C)CC)[C@@H](C)O)C(=O)N[C@@H](CCC(N)=O)C(N)=O` (H-HLKTAVQMAVFIHNFKR[Aoc]AGERIVDIIATDIQ-NH2), it took 680 nM to reach half-maximal inhibition in assay [1] (IC50). For the same compound, the inhibition result in assay [2] is “Active”.

Take “H-HLKTAVQMAVFIHNFKRKGGIGGYSAGERIVDIIATDIQ-NH2”: in assay [1], the IC50 worked out at 1700 nM. In assay [2], the inhibition entry was “Active”.

In assay [1], `CC[C@H](C)[C@H](NC(=O)[C@H](CC(=O)O)NC(=O)[C@@H](NC(=O)[C@H](C)NC(=O)[C@@H](NC(=O)[C@@H](NC(=O)[C@H](CC(=O)O)NC(=O)[C@@H](NC(=O)[C@@H](NC(=O)[C@H](CCCNC(=N)N)NC(=O)[C@H](CCC(=O)O)NC(=O)CNC(=O)[C@H](C)NC(=O)CCCCCCCCCCNC(=O)[C@H](CCCNC(=N)N)NC(=O)[C@H](CCCCN)NC(=O)[C@H](Cc1ccccc1)NC(=O)[C@H](CC(N)=O)NC(=O)[C@H](Cc1cnc[nH]1)NC(=O)[C@@H](NC(=O)[C@H](Cc1ccccc1)NC(=O)[C@@H](NC(=O)[C@H](C)NC(=O)[C@H](CCSC)NC(=O)[C@H](CCC(N)=O)NC(=O)[C@@H](NC(=O)[C@H](C)NC(=O)[C@@H](NC(=O)[C@H](CCCCN)NC(=O)[C@H](CC(C)C)NC(=O)[C@@H](N)Cc1cnc[nH]1)[C@@H](C)O)C(C)C)C(C)C)[C@@H](C)CC)[C@@H](C)CC)C(C)C)[C@@H](C)CC)[C@@H](C)CC)[C@@H](C)O)C(=O)N[C@@H](CCC(N)=O)C(N)=O` (H-HLKTAVQMAVFIHNFKR[Aun]AGERIVDIIATDIQ-NH2) came in with an IC50 of 850 nM. In addition, in assay [2], the inhibition result is “Active”.

On to `CC[C@H](C)[C@H](NC(=O)[C@H](CC(=O)O)NC(=O)[C@@H](NC(=O)[C@H](C)NC(=O)[C@@H](NC(=O)[C@@H](NC(=O)[C@H](CC(=O)O)NC(=O)[C@@H](NC(=O)[C@@H](NC(=O)[C@H](CCCNC(=N)N)NC(=O)[C@H](CCC(=O)O)NC(=O)CNC(=O)[C@H](C)NC(=O)COCCOCCNC(=O)[C@H](CCCNC(=N)N)NC(=O)[C@H](CCCCN)NC(=O)[C@H](Cc1ccccc1)NC(=O)[C@H](CC(N)=O)NC(=O)[C@H](Cc1cnc[nH]1)NC(=O)[C@@H](NC(=O)[C@H](Cc1ccccc1)NC(=O)[C@@H](NC(=O)[C@H](C)NC(=O)[C@H](CCSC)NC(=O)[C@H](CCC(N)=O)NC(=O)[C@@H](NC(=O)[C@H](C)NC(=O)[C@@H](NC(=O)[C@H](CCCCN)NC(=O)[C@H](CC(C)C)NC(=O)[C@@H](N)Cc1cnc[nH]1)[C@@H](C)O)C(C)C)C(C)C)[C@@H](C)CC)[C@@H](C)CC)C(C)C)[C@@H](C)CC)[C@@H](C)CC)[C@@H](C)O)C(=O)N[C@@H](CCC(N)=O)C(N)=O` (H-HLKTAVQMAVFIHNFKR[AEEA]AGERIVDIIATDIQ-NH2), for which the IC50 in assay [1] turned out to be 1070 nM. Further, the inhibition entry in assay [2] is “Active”.
